Experimental findings from US20260223859A1, “PLANT DISEASE CONTROL COMPOSITION COMPRISING CULTURE BROTH OF STREPTOMYCES SP. JCK-6141 STRAIN OR EXTRACT OF CULTURE BROTH OF STRAIN, PREPARATION METHOD THEREFOR AND PLANT DISEASE CONTROL METHOD” (priority 2020, published 2026) are described below.

In assay [1] the test system is Rhizoctonia solani. The experiment in a line: In vivo control of rice sheath blight (RSB). The settings on record: rice cultivar Nakdong. The protocol: The control efficacy of Streptomyces sp. JCK-6141 strain against rice sheath blight (RSB) was examined in vivo. As an experimental plant, the rice cultivar Nakdong (Oryza sativa L.) was used.
One day before pathogen inoculation, the Nakdong rice plants were treated by soil drenching with 10 ml of each of the 3-fold and 9-fold dilutions of the Streptomyces sp. JCK-6141 strain culture in distilled water. After putting an appropriate amount of Nakdong rice bran treated with the dilutions was put into a 1-L culture bottle and sterilized, followed by evenly inoculating finely ground mycelial mass of cultured Rhizoctonia solani into the pots where the rice plants had been grown. After inoculation, incubation was carried out for 3 days in a humid chamber (25° C.) and then for 4 days in an incubator with a relative humidity of 80%. Examination was made of the onset of the disease. As a control, the synthetic chemical fungicide Flutolanil was used at 20 μg/ml or 50 μg/ml concentration.

Assay [2] concerns Puccinia recondite. The experiment in a line: In vivo control of wheat leaf rust. Conditions: wheat cultivar Eunpa, 7 days after inoculation.
Assay [3] relates to Botryoshpaeria dothidea. The assay can be described thus: organism not typed. The format is cell-based. Conditions: 24 hours at 25° C.; read-out: MIC, F61.
The test system of assay [4] is Botryritis cinerea. The experiment in a line: organism not typed. Type of assay: cell-based. Conditions: 24 hours at 25° C.; read-out: MIC, F61.
Assay [5] deals with Colletotrichum horii. The assay can be described thus: microbe, parasite or virus in culture. Type of assay: cell-based. Conditions: 24 hours at 25° C., read-out: MIC, F61.
In assay [6] the test system is Curvularia lunata. The assay can be described thus: microbe, parasite or virus in culture. Conditions: 24 hours at 25° C., read-out: MIC, F61. Type of assay: cell-based.
The subject of assay [7] is Endothia parasitica. The experiment in a line: microbe, parasite or virus in culture. Type of assay: cell-based. Conditions: Cryphonectria parasitica; 24 hours at 25° C.; read-out: MIC, F61.
Assay [8] deals with Fusarium graminearum. The assay can be described thus: microbe, parasite or virus in culture. Type of assay: cell-based. Conditions: 24 h, read-out: MIC, F61 (μg/ml).
Assay [9] deals with Fusarium oxysporum f. sp. raphani. The experiment in a line: microbe, parasite or virus in culture. Type of assay: cell-based. Conditions: 24 hours at 25° C., read-out: MIC, F61.
Assay [10] has as its system Fusarium oxysporum f. sp. cucumerinum. The assay can be described thus: microbe, parasite or virus in culture. Type of assay: cell-based. Conditions: 24 hours at 25° C., read-out: MIC, F61.
Assay [11] relates to Gaeumannomyces graminis. The assay can be described thus: microbe, parasite or virus in culture. The format is cell-based. The settings on record: 24 hours at 25° C., read-out: MIC, F61.
Assay [12] deals with Magnaporthiopsis poae. The assay can be described thus: microbe, parasite or virus in culture. The format is cell-based. Conditions: 24 hours at 25° C., read-out: MIC, F61.
Assay [13] relates to Magnapothe oryzae. The assay can be described thus: organism not typed. The format is cell-based. Conditions: 24 h, read-out: MIC, F61 (μg/ml).
The test system of assay [14] is Phythium ultimum. The assay can be described thus: organism not typed. Type of assay: cell-based. The settings on record: 24 hours at 25° C.; read-out: MIC, F61.
For assay [15], the system named is Rhizoctonia solani. The experiment in a line: microbe, parasite or virus in culture. The format is cell-based. Conditions: 24 hours at 25° C., read-out: MIC, F61.
The subject of assay [16] is Sclerotinia homoeocarpa. The experiment in a line: microbe, parasite or virus in culture. The format is cell-based. The settings on record: Clarireedia homoeocarpa; 24 hours at 25° C.; read-out: MIC, F61.
Assay [17] deals with Valsa ceratosperma. The experiment in a line: microbe, parasite or virus in culture. The format is cell-based. Conditions: Cytospora ceratosperma; 24 hours at 25° C.; read-out: MIC, F61.
Assay [18] relates to Phytophthora cactorum. The experiment in a line: microbe, parasite or virus in culture. Type of assay: cell-based. Conditions: 24 hours at 25° C., read-out: MIC, F61.
Assay [19] relates to Phytophthora cambivora. The experiment in a line: microbe, parasite or virus in culture. Type of assay: cell-based. The settings on record: 24 hours at 25° C., read-out: MIC, F61.
In assay [20] the test system is Phytophthora cinnamomi. The assay can be described thus: microbe, parasite or virus in culture. The format is cell-based. Conditions: 24 hours at 25° C., read-out: MIC, F61.

Structures are written as SMILES. In brackets after ≈: the same amount, converted by molar mass.

Take `CC(C)Oc1cccc(NC(=O)c2ccccc2C(F)(F)F)c1` [Flutolanil]: the “RSB Control (%)” value in [1] (20 μg/ml) and in assay [1] (50 μg/ml) was 100.0 ± 0.0 a % in each case. The “Wheat leaf rust control (%)” value in [2] (20 μg/ml) amounted to 73.3 ± 6.7 b %; in assay [2] (50 μg/ml), 100.0 ± 0.0 a %.

`CCCCCC[C@@]1(OC(=O)CCC(=O)O)CC[C@]2(CC[C@H](C)[C@@H](C/C=C(C)/C=C/[C@H](O)[C@@H](C)/C=C/C(=O)O)O2)O[C@H]1/C=C/C(C)=C/C(=O)O` [F61, reveromycin E]: the MIC was 0.098 µg/mL (≈ 0.142 µM) in assay [3]; 1.56 µg/mL (≈ 2.26 µM) in [4]; 0.049 µg/mL (≈ 0.0711 µM) in [5]; 0.78 µg/mL (≈ 1.13 µM) in [6]; 1.56 µg/mL (≈ 2.26 µM) in assay [7]; 0.195 µg/mL (≈ 0.283 µM) in assay [8]. The MIC in assay [9] was 1.56 µg/mL (≈ 2.26 µM); in assay [10], 1.56 µg/mL (≈ 2.26 µM); in assay [11], 3.12 µg/mL (≈ 4.54 µM); in [12] it was 0.0244 µg/mL (≈ 0.0354 µM); in [13], 0.78 µg/mL (≈ 1.13 µM); in assay [14], 1.56 µg/mL (≈ 2.26 µM). For the same molecule, the MIC in assay [15] was 1.56 µg/mL (≈ 2.26 µM); in assay [16], 0.195 µg/mL (≈ 0.283 µM); in assay [17], 0.78 µg/mL (≈ 1.13 µM); in [18], 0.195 µg/mL (≈ 0.283 µM); in [19], 0.195 µg/mL (≈ 0.283 µM); in [20], 0.39 µg/mL (≈ 0.566 µM).
